Experimental data from article PMC12675387, “Receptor interaction profiles of 4-alkoxy-2,6-dimethoxyphenethylamines (Ψ derivatives) and related amphetamines” (Frontiers in Pharmacology, 2025).

What was measured:
human TAAR1 = target: T1, human TAAR1 (Homo sapiens, UniProt Q96RJ0); assay: Activation potency at human TAAR1 (cAMP assay, HEK 293 cells); type: cell-based
T1 construct: expressed in transfected cells; host or cells: HEK 293 cells
T1 sequence (Q96RJ0 1-339): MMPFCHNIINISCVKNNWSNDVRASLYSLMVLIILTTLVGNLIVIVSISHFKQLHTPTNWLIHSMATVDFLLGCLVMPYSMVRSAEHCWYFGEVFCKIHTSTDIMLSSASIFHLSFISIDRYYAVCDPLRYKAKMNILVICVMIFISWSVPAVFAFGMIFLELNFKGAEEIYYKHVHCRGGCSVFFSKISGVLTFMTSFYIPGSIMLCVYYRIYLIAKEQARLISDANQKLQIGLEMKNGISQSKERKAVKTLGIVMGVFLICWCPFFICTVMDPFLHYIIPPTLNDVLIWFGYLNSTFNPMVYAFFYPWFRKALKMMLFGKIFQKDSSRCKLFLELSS
Procedure: The activation potency at the human TAAR1 was determined as previously described by [Luethi et al. (2018)]. In summary, recombinant HEK 293 cells stably transfected with the human TAAR1 were grown in culture flasks composed of 30 mL high glucose DMEM with 10% heat inactivated fetal calf serum, […] Geneticin, and […] hygromycin B at 37 °C and 5% CO2. The cells were grown to 80%–90% confluency before collection. The cells were washed with phosphate-buffer saline (PBS) and 5 mL of trypsin/EDTA solution were added for 5 min at 37 °C to detach the cells from the flask. Then, 45 mL of fresh medium were added to the flask and the total mixture was put into a falcon tube, which was centrifuged for 3 min at 900 rpm at room temperature. The supernatant was aspirated, and the remaining cell pellet was resuspended in fresh medium to a concentration of 5 × 10^5 cells per mL. Next, 100 μL of the cell mixture was transferred to a 96 well plate (BIOCOAT 6640, Becton Dickinson, Allschwil, Switzerland) and incubated for 20 h at 37 °C. For the cAMP assay, the medium was removed and replaced with 50 μL PBS lacking calcium or magnesium ions. The PBS was extracted via snap inversion and the plate was gently tapped on tissue to remove any remaining PBS solution. The plate was then incubated with Krebs-Ringer Bicarbonate buffer (90 μL/well; KRB, Sigma-Aldrich) containing 1 mM IBMX for 1 h at 37 °C and 5% CO2/95% air. Test compounds were investigated in duplicate at various concentrations ranging from 300 pM to 30 μM. A cAMP standard curve (concentration range of 0.13 nM–10 μM) was included on each 96 well plate. Additionally, a reference plate was used containing RO5256390, β-phenylethylamine and p-tyramine. Cells were incubated with either 30 μL of compound solution, β-phenylethylamine (which represented the maximal response) or a basal control in PBS (supplemented with 1 mM IBMX) for 40 min at 37 °C. Thereafter, the cells were incubated with 50 μL of 3× detection mix solution (consisting of Ru-cAMP Alexa700 anti-cAMP antibody and lysis buffer) for 40 min at 37 °C, while covered with black lids and under forceful shaking. The fluorescence (456 nm excitation wavelength; 630 and 700 nm emission wavelengths) was measured using a NanoScan reader (Innovate Optische Messtechnik, Berlin, Germany) and the FRET signal was calculated using the following equation: FRET (700 nm) – P × FRET (630 nm). P was equal to Ru (700 nm)/Ru (630 nm).

[1] = cited from earlier work
hDAT = hDAT (Homo sapiens, UniProt Q01959); assay: Radioligand binding, DAT ([3H]WIN35,428); conditions: hDAT Ki ± SD, [3H]WIN35,428
hNET = hNET (Homo sapiens, UniProt P23975); assay: Radioligand binding, NET (N-methyl-[3H]nisoxetine)
h5-HT2A receptor = h5-HT2A receptor (Homo sapiens, UniProt P28223); assay: Radioligand binding, 5-HT2A receptor ([3H]ketanserin); conditions: for fold difference in 5-HT2A receptor affinity between Ψ derivative and its 2,4,5-trisubstituted counterpart: TMA-6 vs TMA-2, Ψ-2C-O-16 vs 2C-O-16, Ψ-MALM vs MALM: higher affinity of the Ψ derivative; for Selectivity (binding ratio) 5-HT2A/5-HT1A: preference for 5-HT2A (Ki 5-HT1A divided by Ki 5-HT2A); for Selectivity (binding ratio) 5-HT2A/5-HT2C: preference for 5-HT2A (Ki 5-HT2C divided by Ki 5-HT2A)
h5-HT2C receptor = target: T2, h5-HT2C receptor (Homo sapiens, UniProt P28335); assay: Radioligand binding, 5-HT2C receptor ([3H]mesulergine)
T2 sequence (P28335 33-458): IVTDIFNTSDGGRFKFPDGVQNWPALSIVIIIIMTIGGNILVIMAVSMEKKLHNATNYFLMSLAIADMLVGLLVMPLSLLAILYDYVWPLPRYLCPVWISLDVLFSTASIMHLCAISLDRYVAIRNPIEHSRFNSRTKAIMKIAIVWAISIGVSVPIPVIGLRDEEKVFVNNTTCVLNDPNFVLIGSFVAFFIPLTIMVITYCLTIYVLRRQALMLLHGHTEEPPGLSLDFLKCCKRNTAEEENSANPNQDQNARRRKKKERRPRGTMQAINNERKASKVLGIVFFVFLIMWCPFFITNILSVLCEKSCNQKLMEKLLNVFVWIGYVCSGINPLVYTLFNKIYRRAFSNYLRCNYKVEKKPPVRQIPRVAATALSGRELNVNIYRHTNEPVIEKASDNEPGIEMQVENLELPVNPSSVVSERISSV

hD2 receptor = hD2 receptor (Homo sapiens, UniProt P14416); assay: Radioligand binding, dopaminergic D2 receptor ([3H]spiperone)
[2] = anecdotal, ref Shulgin and Shulgin, 1991

hD2 receptor, sequence (P14416 whole entry): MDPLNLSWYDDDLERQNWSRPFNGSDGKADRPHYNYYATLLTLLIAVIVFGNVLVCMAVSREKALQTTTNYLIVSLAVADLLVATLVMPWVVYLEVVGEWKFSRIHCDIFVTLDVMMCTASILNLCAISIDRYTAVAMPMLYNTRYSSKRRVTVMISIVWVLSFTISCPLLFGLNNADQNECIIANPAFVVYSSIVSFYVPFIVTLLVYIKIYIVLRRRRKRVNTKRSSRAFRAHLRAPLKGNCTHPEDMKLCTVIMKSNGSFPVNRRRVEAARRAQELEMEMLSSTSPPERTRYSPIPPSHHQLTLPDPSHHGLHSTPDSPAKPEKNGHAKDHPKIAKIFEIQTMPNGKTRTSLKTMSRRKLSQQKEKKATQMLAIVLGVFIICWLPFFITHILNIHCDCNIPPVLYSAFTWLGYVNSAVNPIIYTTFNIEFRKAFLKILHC
hDAT, sequence (Q01959 whole entry): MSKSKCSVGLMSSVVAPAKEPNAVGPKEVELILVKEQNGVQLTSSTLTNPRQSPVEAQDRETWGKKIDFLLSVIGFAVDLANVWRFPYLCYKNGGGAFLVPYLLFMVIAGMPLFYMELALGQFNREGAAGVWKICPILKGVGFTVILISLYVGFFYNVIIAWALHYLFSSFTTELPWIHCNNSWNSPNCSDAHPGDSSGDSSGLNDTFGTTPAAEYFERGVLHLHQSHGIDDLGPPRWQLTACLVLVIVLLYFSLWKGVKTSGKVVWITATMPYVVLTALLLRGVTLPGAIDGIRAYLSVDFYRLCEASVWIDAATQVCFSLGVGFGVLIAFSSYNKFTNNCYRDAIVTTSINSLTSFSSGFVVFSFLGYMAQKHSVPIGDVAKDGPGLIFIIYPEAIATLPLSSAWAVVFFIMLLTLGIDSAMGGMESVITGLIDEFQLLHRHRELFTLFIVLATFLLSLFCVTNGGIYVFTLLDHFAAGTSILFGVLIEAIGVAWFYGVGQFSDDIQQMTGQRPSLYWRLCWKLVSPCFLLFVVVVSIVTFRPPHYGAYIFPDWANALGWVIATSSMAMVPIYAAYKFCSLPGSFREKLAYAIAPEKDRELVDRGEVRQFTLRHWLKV
hNET, sequence (P23975 whole entry): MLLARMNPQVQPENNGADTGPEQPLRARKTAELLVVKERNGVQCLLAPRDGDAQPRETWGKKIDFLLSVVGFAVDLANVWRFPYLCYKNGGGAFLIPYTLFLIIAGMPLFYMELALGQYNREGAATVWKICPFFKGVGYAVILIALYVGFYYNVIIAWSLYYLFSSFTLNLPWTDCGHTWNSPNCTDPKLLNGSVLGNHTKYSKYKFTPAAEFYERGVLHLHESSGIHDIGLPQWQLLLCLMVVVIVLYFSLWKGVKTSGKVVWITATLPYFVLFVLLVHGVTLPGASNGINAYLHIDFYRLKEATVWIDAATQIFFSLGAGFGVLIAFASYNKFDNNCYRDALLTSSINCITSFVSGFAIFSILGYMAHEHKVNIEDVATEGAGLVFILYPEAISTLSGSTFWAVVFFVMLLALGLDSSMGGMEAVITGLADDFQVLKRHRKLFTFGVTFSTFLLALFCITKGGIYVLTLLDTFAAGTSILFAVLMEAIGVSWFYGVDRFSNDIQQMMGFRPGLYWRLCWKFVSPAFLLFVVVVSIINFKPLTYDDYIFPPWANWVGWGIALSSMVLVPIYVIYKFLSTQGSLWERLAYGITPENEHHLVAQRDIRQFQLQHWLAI
h5-HT2A receptor, sequence (P28223 whole entry): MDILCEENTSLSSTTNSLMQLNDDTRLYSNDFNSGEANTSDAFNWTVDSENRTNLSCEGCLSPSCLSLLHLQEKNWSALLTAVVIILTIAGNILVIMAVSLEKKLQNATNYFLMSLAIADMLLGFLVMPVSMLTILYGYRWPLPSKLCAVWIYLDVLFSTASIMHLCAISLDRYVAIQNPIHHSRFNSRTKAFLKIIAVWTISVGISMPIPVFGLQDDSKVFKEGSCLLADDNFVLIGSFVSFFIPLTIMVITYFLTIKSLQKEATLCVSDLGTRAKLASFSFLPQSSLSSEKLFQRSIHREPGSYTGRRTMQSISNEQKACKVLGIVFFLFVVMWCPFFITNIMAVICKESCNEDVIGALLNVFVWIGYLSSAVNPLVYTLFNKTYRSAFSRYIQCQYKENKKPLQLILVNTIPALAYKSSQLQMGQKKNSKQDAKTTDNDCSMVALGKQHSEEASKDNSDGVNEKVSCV

SMILES | EC50 (human TAAR1) | duration of effects in humans [1, 2] | psychoactive dose in humans [1, 2] | Ki (hDAT) | Ki (hNET) | Ki (h5-HT2A receptor) | fold difference in 5-HT2A receptor affinity between Ψ derivative and its 2,4,5-trisubstituted counterpart (h5-HT2A receptor) | Selectivity (binding ratio) 5-HT2A/5-HT1A (h5-HT2A receptor) | Selectivity (binding ratio) 5-HT2A/5-HT2C (h5-HT2A receptor) | Ki (h5-HT2C receptor) | Ki (hD2 receptor) | activity in humans ([1]; doses up to 300 mg)
COc1cc(OC)c(CC(C)N)c(OC)c1 (stereo not drawn) [TMA-6, 2,4,6-trimethoxyamphetamine] | > 30 µM | 12 to 16 h | 25 to 50 mg | > 8.5 µM | > 8.8 µM | 0.27 ± 0.018 µM | 2–5 fold | >21 | 6.7 | 1.8 µM | > 6 µM | –
COc1cc(OC)c(CCN)c(OC)c1 [Ψ-2C-O-1, 2,4,6-trimethoxyphenethylamine] | 2.3 µM | – | – | > 8.5 µM | > 8.8 µM | 0.3 ± 0.04 µM | – | 3.2 | 4 | 1.2 µM | > 6 µM | inactive
CCOc1cc(OC)c(CCN)c(OC)c1 [Ψ-2C-O-2, 2,6-dimethoxy-4-ethoxyphenethylamine] | 0.23 ± 0.17 µM | – | – | > 8.5 µM | > 8.8 µM | 0.4 ± 0.28 µM | – | 1.8 | 3.8 | 1.5 µM | > 6 µM | –
C=C(C)COc1cc(OC)c(CCN)c(OC)c1 [Ψ-2C-O-3, 2,6-dimethoxy-4-methallyloxyphenethylamine] | 0.1 ± 0.06 µM | – | – | 7.8 µM | > 8.8 µM | 0.032 ± 0.008 µM | – | 32 | 6.6 | 0.21 ± 0.14 µM | > 6 µM | –
C=CCOc1cc(OC)c(CCN)c(OC)c1 [Ψ-2C-O-16, 4-allyloxy-2,6-dimethoxyphenethylamine] | 0.034 ± 0.015 µM | – | – | > 8.5 µM | > 8.8 µM | 0.054 ± 0.004 µM | 2–5 fold | 17 | 9.3 | 0.5 ± 0.23 µM | > 6 µM | –
COc1cc(OCCF)cc(OC)c1CCN [Ψ-2C-O-21, 2,6-dimethoxy-4-(2-fluoroethoxy)phenethylamine] | 0.08 ± 0.043 µM | – | – | > 8.5 µM | > 8.8 µM | 0.97 ± 0.19 µM | – | 1.6 | 3.6 | 3.5 µM | > 6 µM | –
COc1cc(OCC(F)F)cc(OC)c1CCN [Ψ-2C-O-21.5, 4-(2,2-difluoroethoxy)-2,6-dimethoxyphenethylamine] | 0.041 ± 0.009 µM | – | – | > 8.5 µM | > 8.8 µM | 1.6 µM | – | 0.8 | 1.8 | 2.8 µM | > 6 µM | –
COc1cc(OCC(F)(F)F)cc(OC)c1CCN [Ψ-2C-O-22, 2,6-dimethoxy-4-(2,2,2-trifluoroethoxy)phenethylamine] | 0.047 ± 0.022 µM | – | – | > 8.5 µM | > 8.8 µM | 0.6 ± 0.06 µM | – | 4 | 3.7 | 2.2 µM | > 6 µM | –
